Experimental data from US20100216779A1 (GLAXOSMITHKLINE LLC, priority 2007, published 2010).

Assays:
Type in all cases: cell-based
[1] = test system: COLO205 (colon); experiment: Inhibition of cell proliferation, CellTiter-Glo, COLO205; conditions: Homo sapiens, COLO 205, 72 h
Protocol: C. Inhibition of Cell Proliferation
Cell proliferation was measured by either CellTiter-Glo (measures cellular ATP level as a surrogate for total cell number) or by InCell analyzer (counts number of nuclei as a measure of cell number). For CellTiter-Glo assay, exponentially growing cell lines of different tumor origins, cultured in appropriate media containing 10% fetal bovine serum at 37° C. in a 5% CO2 incubator, were plated at low density (less than 2000 cells/well) in 96-well plates. […] Several wells were left untreated as a control. Seventy two hours post-treatment, cell numbers were determined using 50-100 ul per well of CellTiter-Glo (Promega #G7573). Plates were incubated at 37° C. for 30 minutes and the chemiluminescent signal was read on the Victor V or Envison 2100 reader. […]

[2] = target: T1, human IGF-1R (NIH-3T3 cells over expressing human IGF-1R) (Homo sapiens, UniProt P08069); experiment: IGF-1R cellular autophosphorylation (DELFIA); conditions: IGF-1 stimulated
T1 construct: expressed in transfected cells; host or cells: NIH-3T3 (mouse fibroblasts)
Protocol: (§1) D. IGF-1R and IR Cellular Autophosphorylation (DELFIA)
(§2) NIH-3T3 cells over expressing human IGF-1R or IR were plated in 96-well plates (10,000 cells/well) in culture media containing 10% fetal bovine serum and incubated at 37° C. in a 5% CO2 incubator. Twenty four hours post-plating, cells were treated with different concentrations of test compounds ranging from 30 uM to 1.5 nM. Two hours after compound addition, cells were stimulated with either human IGF-1 (30 ng/mL) or insulin (3 ug/mL) for 15 minutes. Cell lysates are analyzed for phosphorylated receptors using dissociation enhanced lanthanide fluor-immuno assay (DELFIA) with anti-IGF-1R (MAB391, R&D Systems, Minneapolis, Minn.) or anti-IR[…](sc-711, Santa Cruz Biotechnology, Santa Cruz, Calif.) capture antibody and europium-labeled anti-pTyr antibody (Eu-N1 PT66, Perkin Elmer, Waltham, Mass.) for detection. The fluorescence signal for cells treated with compounds was expressed as percent relative to 100% stimulation (IGF-1 or insulin stimulated signal). […]

[3] = target: T2, IR (NIH-3T3 cells over expressing human IGF-1R or IR) (Homo sapiens, UniProt P06213); experiment: IR cellular autophosphorylation (DELFIA); conditions: NIH-3T3 cells over expressing IR, insulin stimulated
T2 construct: expressed in transfected cells; host or cells: NIH-3T3 (mouse fibroblasts)
Protocol: as §1, §2

T2 sequence (P06213 28-1382): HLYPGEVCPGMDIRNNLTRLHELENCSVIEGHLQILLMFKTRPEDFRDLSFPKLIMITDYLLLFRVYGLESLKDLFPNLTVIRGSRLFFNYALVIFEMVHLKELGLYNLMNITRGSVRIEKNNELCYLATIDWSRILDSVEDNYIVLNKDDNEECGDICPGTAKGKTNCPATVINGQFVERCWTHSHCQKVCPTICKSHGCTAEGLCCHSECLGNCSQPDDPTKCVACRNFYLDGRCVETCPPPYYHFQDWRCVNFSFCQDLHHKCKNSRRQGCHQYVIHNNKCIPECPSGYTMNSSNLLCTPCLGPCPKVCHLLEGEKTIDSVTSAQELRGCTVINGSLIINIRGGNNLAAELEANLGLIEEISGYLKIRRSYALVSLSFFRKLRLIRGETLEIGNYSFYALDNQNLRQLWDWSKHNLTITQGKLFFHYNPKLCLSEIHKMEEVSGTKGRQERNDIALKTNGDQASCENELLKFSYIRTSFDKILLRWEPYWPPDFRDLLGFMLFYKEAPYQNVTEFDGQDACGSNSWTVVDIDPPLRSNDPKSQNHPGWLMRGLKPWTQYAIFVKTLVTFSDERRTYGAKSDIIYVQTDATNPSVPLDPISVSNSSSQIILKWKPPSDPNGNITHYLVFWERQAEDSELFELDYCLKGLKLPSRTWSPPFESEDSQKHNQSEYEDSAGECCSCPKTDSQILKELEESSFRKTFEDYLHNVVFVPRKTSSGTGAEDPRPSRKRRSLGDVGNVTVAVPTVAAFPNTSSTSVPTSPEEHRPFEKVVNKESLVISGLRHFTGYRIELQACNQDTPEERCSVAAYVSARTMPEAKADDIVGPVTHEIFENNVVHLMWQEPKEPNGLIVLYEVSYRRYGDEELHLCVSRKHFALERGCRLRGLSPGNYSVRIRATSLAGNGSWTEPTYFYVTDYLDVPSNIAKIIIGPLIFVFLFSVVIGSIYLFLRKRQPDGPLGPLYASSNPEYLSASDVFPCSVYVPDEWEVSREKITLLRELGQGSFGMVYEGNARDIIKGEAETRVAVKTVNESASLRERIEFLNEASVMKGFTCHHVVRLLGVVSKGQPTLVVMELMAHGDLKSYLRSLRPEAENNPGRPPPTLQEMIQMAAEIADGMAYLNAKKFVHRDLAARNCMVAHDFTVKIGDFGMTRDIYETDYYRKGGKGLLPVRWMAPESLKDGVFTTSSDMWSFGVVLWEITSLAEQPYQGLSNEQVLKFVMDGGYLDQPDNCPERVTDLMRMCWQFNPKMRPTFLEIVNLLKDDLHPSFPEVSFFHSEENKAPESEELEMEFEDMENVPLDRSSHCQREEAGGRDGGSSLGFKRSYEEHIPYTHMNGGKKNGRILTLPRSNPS
T1 sequence (P08069 31-1367): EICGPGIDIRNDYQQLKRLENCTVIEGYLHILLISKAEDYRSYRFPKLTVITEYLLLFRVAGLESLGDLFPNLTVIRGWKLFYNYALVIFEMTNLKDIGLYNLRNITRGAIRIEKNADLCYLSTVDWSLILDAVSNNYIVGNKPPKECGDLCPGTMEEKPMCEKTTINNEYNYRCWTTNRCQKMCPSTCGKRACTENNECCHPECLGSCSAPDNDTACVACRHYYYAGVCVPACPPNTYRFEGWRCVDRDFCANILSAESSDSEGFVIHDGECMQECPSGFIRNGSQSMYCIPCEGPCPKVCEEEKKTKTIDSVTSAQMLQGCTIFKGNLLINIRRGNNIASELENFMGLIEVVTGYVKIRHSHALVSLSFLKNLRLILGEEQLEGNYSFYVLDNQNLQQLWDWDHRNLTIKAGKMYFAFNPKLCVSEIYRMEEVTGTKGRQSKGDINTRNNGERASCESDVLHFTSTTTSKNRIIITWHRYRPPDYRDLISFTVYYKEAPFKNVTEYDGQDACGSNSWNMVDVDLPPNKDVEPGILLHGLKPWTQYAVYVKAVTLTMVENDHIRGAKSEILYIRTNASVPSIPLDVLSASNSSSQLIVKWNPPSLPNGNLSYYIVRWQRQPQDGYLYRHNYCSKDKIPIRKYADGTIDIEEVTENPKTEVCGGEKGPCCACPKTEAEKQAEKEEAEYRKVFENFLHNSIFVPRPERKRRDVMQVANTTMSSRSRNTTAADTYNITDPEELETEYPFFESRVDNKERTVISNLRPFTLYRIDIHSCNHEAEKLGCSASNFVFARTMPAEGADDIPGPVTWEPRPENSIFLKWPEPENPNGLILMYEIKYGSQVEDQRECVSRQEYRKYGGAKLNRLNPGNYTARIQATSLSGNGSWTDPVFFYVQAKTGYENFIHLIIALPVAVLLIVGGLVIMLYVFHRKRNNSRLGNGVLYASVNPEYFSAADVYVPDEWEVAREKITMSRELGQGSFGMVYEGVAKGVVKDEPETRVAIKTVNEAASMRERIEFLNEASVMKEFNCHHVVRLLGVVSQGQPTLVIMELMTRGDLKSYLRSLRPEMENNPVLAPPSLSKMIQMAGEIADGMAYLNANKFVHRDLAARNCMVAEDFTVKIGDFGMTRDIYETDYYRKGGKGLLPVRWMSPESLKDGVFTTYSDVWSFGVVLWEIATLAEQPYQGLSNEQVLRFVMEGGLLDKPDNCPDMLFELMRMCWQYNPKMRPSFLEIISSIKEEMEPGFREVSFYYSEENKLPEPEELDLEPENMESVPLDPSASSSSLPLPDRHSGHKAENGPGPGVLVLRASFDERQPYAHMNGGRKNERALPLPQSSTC

Row | IC50 [1] [nM] | IC50 [2] [nM] | IC50 [3] [nM] | SMILES
1 | < 250 | < 100 | 100 to 500 | COc1ccc(-c2nc3ccccn3c2-c2ccnc(Nc3cccc(OCCN(C)C)c3)n2)cc1C(=O)Nc1c(F)cccc1F [Example 1, N-(2,6-difluorophenyl)-5-(3-{2-[(3-{[2-(dimethylamino)ethyl]oxy}phenyl)-amino]-4-pyrimidinyl}imidazo[1,2-a]pyridin-2-yl)-2-(methyloxy)benzamide]
2 | 250 to 1000 | > 500 | > 500 | COc1ccc(-c2nc3cc(C)ccn3c2-c2ccnc(Nc3cccc(OCCN(C)C)c3)n2)cc1C(=O)Nc1c(F)cccc1F [Example 2, N-(2,6-difluorophenyl)-5-(3-{2-[(3-{[2-(dimethylamino)ethyl]oxy}phenyl)amino]-4-pyrimidinyl}-7-methylimidazo[1,2-a]pyridin-2-yl)-2-(methyloxy)benzamide]
3 | 250 to 1000 | < 100 | < 100 | COc1cc(N2CCC(N3CCCCC3)CC2)ccc1Nc1nccc(-c2c(-c3ccc(OC)c(C(=O)Nc4c(F)cccc4F)c3)nc3cc(C)ccn23)n1 [Example 4, 5-[3-(2-{[4-(1,4′-bipiperidin-1′-yl)-2-(methyloxy)phenyl]amino}-4-pyrimidinyl)-7-methylimidazo[1,2-a]pyridin-2-yl]-N-(2,6-difluorophenyl)-2-(methyloxy)benzamide]
4 | > 1000 | < 100 | < 100 | COc1ccn2c(-c3ccnc(Nc4ccc(N5CCC(N6CCCCC6)CC5)cc4OC)n3)c(-c3ccc(OC)c(C(=O)Nc4c(F)cccc4F)c3)nc2c1 [Example 5, 5-[3-(2-{[4-(1,4′-bipiperidin-1′-yl)-2-(methyloxy)phenyl]amino}-4-pyrimidinyl)-7-(methyloxy)imidazo[1,2-a]pyridin-2-yl]-N-(2,6-difluorophenyl)-2-(methyloxy)benzamide]
5 |  | < 100 | > 500 | Cc1cc(OC2CCN(C)CC2)ccc1Nc1nccc(-c2c(-c3cccc(C(=O)Nc4c(F)cccc4F)c3)nc3ccccn23)n1 [Example 7, N-(2,6-difluorophenyl)-3-{3-[2-({2-methyl-4-[(1-methyl-4-piperidinyl)oxy]phenyl}amino)-4-pyrimidinyl]imidazo[1,2-a]pyridin-2-yl}benzamide]
6 |  | < 100 | 100 to 500 | Cc1cc(OC2CCN(CCS(C)(=O)=O)CC2)ccc1Nc1nccc(-c2c(-c3cccc(C(=O)Nc4c(F)cccc4F)c3)nc3ccccn23)n1 [Example 8, N-(2,6-difluorophenyl)-3-[3-(2-{[2-methyl-4-({1-[2-(methylsulfonyl)ethyl]-4-piperidinyl}oxy)phenyl]amino}-4-pyrimidinyl)imidazo[1,2-a]pyridin-2-yl]benzamide]
7 | 250 to 1000 | 100 to 500 | 100 to 500 | Cn1cc(-c2cccc(Nc3nccc(-c4c(-c5cccc(C(=O)Nc6c(F)cccc6F)c5)nc5ccccn45)n3)c2)cn1 [Example 11, N-(2,6-difluorophenyl)-3-[3-(2-{[3-(1-methyl-1H-pyrazol-4-yl)phenyl]amino}-4-pyrimidinyl)imidazo[1,2-a]pyridin-2-yl]benzamide]
8 | < 250 | 100 to 500 | > 500 | COc1ccn2c(-c3ccnc(Nc4cccc(OCCN(C)C)c4)n3)c(-c3cccc(C(=O)Nc4cccc(F)c4F)c3)nc2c1 [Example 15, N-(2,3-difluorophenyl)-3-[3-{2-[(3-{[2-(dimethylamino)ethyl]oxy}phenyl)amino]-4-pyrimidinyl}-7-(methyloxy)imidazo[1,2-a]pyridin-2-yl]benzamide]
9 | 250 to 1000 | < 100 | < 100 | COc1ccn2c(-c3ccnc(Nc4cccc(OCCN(C)C)c4)n3)c(-c3cccc(C(=O)Nc4ccc(F)cc4F)c3)nc2c1 [Example 16, N-(2,4-difluorophenyl)-3-[3-{2-[(3-{[2-(dimethylamino)ethyl]oxy}phenyl)amino]-4-pyrimidinyl}-7-(methyloxy)imidazo[1,2-a]pyridin-2-yl]benzamide]
10 | 250 to 1000 | 100 to 500 | > 500 | COc1ccn2c(-c3ccnc(Nc4cccc(OCCN(C)C)c4)n3)c(-c3cccc(C(=O)Nc4c(F)cccc4F)c3)nc2c1 [Example 17, N-(2,6-difluorophenyl)-3-[3-{2-[(3-{[2-(dimethylamino)ethyl]oxy}phenyl)amino]-4-pyrimidinyl}-7-(methyloxy)imidazo[1,2-a]pyridin-2-yl]benzamide]
11 | 250 to 1000 | < 100 | 100 to 500 | COc1cc(N2CCC(N3CCCCC3)CC2)ccc1Nc1nccc(-c2c(-c3cccc(C(=O)Nc4c(F)cccc4F)c3)nc3cc(C)ccn23)n1 [Example 18, 3-[3-(2-{[4-(1,4′-bipiperidin-1′-yl)-2-(methyloxy)phenyl]amino}-4-pyrimidinyl)-7-methylimidazo[1,2-a]pyridin-2-yl]-N-(2,6-difluorophenyl)benzamide]
12 | < 250 | < 100 | < 100 | COc1cc(N2CCC(N3CCCCC3)CC2)ccc1Nc1nccc(-c2c(-c3ccc(OC)c(C(=O)Nc4c(F)cccc4F)c3)nc3ccccn23)n1 [Example 23, 5-[3-(2-{[4-(1,4′-bipiperidin-1-yl)-2-(methyloxy)phenyl]amino}-4-pyrimidinyl)imidazo[1,2-a]pyridin-2-yl]-N-(2,6-difluorophenyl)-2-(methyloxy)benzamide]
13 | 250 to 1000 | < 100 | > 500 | COc1cc(-c2nnc(CN(C)C)o2)ccc1Nc1nccc(-c2c(-c3ccc(OC)c(C(=O)Nc4c(F)cccc4F)c3)nc3ccccn23)n1 [Example 26, N-(2,6-difluorophenyl)-5-[3-(2-{[4-{5-[(dimethylamino)methyl]-1,3,4-oxadiazol-2-yl}-2-(methyloxy)phenyl]amino}-4-pyrimidinyl)imidazo[1,2-a]pyridin-2-yl]-2-(methyloxy)benzamide]
14 |  | < 100 | < 100 | COc1cc(N2CCC(N3CCCCC3)CC2)c(C)cc1Nc1nccc(-c2c(-c3cccc(C(=O)Nc4c(F)cccc4F)c3)nc3ccccn23)n1 [Example 108, 3-[3-(2-{[4-(1,4′-bipiperidin-1′-yl)-5-methyl-2-(methyloxy)phenyl]amino]-4-pyrimidinyl)imidazo[1,2-a]pyridin-2-yl]-N-(2,6-difluorophenyl)benzamide]
15 |  | < 100 | < 100 | CCc1cc(Nc2nccc(-c3c(-c4ccc(OC)c(C(=O)Nc5c(F)cccc5F)c4)nc4ccccn34)n2)c(OC)cc1N1CCN(CCS(C)(=O)=O)CC1 [Example 187, N-(2,6-difluorophenyl)-5-(3-{2-[(5-ethyl-2-(methyloxy)-4-{4-[2-(methylsulfonyl)ethyl]-1-piperazinyl}phenyl)amino]-4-pyrimidinyl}imidazo[1,2-a]pyridin-2-yl)-2-(methyloxy)benzamide]

Row | SMILES | IC50 [1] [nM] | IC50 [2] [nM] | IC50 [3] [nM]
16 | COc1cc(N2CCC(N3CCN(CCF)CC3)CC2)c(Cl)cc1Nc1nccc(-c2c(-c3cccc(C(=O)Nc4c(F)cccc4F)c3)nc3ccccn23)n1 [Example 112, 3-[3-(2-{[5-chloro-4-{4-[4-(2-fluoroethyl)-1-piperazinyl]-1-piperidinyl}-2-(methyloxy)phenyl]amino}-4-pyrimidinyl)imidazo[1,2-a]pyridin-2-yl]-N-(2,6-difluorophenyl)benzamide] |  | < 100 | < 100
